The values that follow come from patent US4017607A.

In brackets after ≈: the same amount, converted by molar mass. Where two headings read alike, the source gives them in different places.

The subject of data set [1] is gram-negative and gram-positive bacteria. Put plainly: Antibacterial activity (in words). Format: cell-based.
Data set [2] relates to Staphylococcus aureus 209P. Put plainly: Minimum inhibitory concentration, serial dilution method, Brain Heart Infusion broth. Format: cell-based. Particulars: read-out: Minimum Inhibitory Concentration.
Data set [3] concerns Staphylococcus aureus Terajima. Put plainly: Minimum inhibitory concentration, serial dilution method. Type of data set: cell-based. Particulars: read-out: Minimum Inhibitory Concentration.
Data set [4] concerns Staphylococcus aureus Smith. The data set is described as above. Type of data set: cell-based. The note with it: read-out: Minimum Inhibitory Concentration.
Data set [5] relates to Staphylococcus albus 1200A. The description is as above. Format: cell-based. The note with it: read-out: Minimum Inhibitory Concentration.
Data set [6] has as its system Streptococcus faecalis ATCC 8043. Described as above. Format: cell-based. The note with it: Enterococcus faecalis, read-out: Minimum Inhibitory Concentration.
The subject of data set [7] is Streptococcus hemolyticus Cook. Described as above. Type of data set: cell-based. The note with it: Streptococcus pyogenes, read-out: Minimum Inhibitory Concentration.
Data set [8] relates to Streptococcus hemolyticus D-90. The data set is described as above. Type of data set: cell-based. Particulars: Streptococcus pyogenes, read-out: Minimum Inhibitory Concentration.
For data set [9], the system named is Streptococcus pyogenes D-58. Described as above. Type of data set: cell-based. The note with it: read-out: Minimum Inhibitory Concentration.
Data set [10] concerns Diplococcus pneumoniae Type I. The description is as above. The note with it: Streptococcus pneumoniae, read-out: Minimum Inhibitory Concentration. Type of data set: cell-based.
The subject of data set [11] is Diplococcus pneumoniae Type III. The data set is described as above. Type of data set: cell-based. Particulars: Streptococcus pneumoniae, read-out: Minimum Inhibitory Concentration.
Data set [12] concerns Bacillus subtilis PCI 219. The description is as above. Format: cell-based. Particulars: read-out: Minimum Inhibitory Concentration.
Data set [13] concerns Bacillus subtilis ATCC 6633. Described as above. Format: cell-based. Particulars: read-out: Minimum Inhibitory Concentration.
Data set [14] has as its system Bacillus anthracis No. 119. Put plainly: microbe, parasite or virus in culture. Format: cell-based. Particulars: NO.119, 24 h, read-out: Minimum Inhibitory Concentration.
Data set [15] concerns Corynebacterium diphtheriae Type gravis. The experiment in a line: Minimum inhibitory concentration, serial dilution method. Format: cell-based. Particulars: read-out: Minimum Inhibitory Concentration.
For data set [16], the system named is Corynebacterium diphtheriae Type intermedius. The description is as above. The note with it: read-out: Minimum Inhibitory Concentration. Type of data set: cell-based.
The subject of a further data set is Sarcina lutea. The data set is described as above. Format: cell-based. The note with it: Micrococcus luteus, read-out: Minimum Inhibitory Concentration.
The subject of data set [17] is Staphylococcus aureus 209P. Particulars: 7th day, 10 mice per group.
The nature of data set [18]: Acute toxicity by oral administration to mice. Particulars: mouse, in vivo, free base.
Setting [19] is: Corynebacterium diphtheriae, 24 h.

As for `CCC(=O)OC1CC(=O)OC(C)CC=CC=CC(OC(C)=O)C(C)CC(C=COC(C)=O)C(OC2OC(C)C(OC3CC(C)(OC(=O)CC)C(OC(C)=O)C(C)O3)C(N(C)C)C2OC(C)=O)C1OC` (centres unmarked), the antibacterial activity result in data set [1] was “substantially no antibacterial activity”.

On to `CCC(=O)OC1CC(=O)OC(C)CC=CC=CC(OC(C)=O)C(C)CC(C=COC(C)=O)C(OC2OC(C)C(OC3CC(C)(OC(=O)CC)C(OC(C)=O)C(C)O3)C(N(C)C)C2O)C1OC` (centres unmarked), for which the antibacterial activity entry in data set [1] is reported as “no antibacterial activity”.

Turning to “9,2' -di-acetyl-18,3" -di-propionyl SF-837 substance”, the antibacterial activity entry in data set [1] is reported as “observed”.

As for `CCC(=O)OC=CC1CC(C)C(OC(C)=O)C=CC=CCC(C)OC(=O)CC(OC(=O)CC)C(OC)C1OC1OC(C)C(OC2CC(C)(OC(=O)CC)C(OC(=O)CC)C(C)O2)C(N(C)C)C1O` (centres unmarked) [9-acetyl-18,3"-di-propionyl SF-837 substance], the antibacterial activity result in data set [1] is recorded as “Not observed”.

Consider `CCC(=O)OC1C=CC=CCC(C)OC(=O)CC(OC(=O)CC)C(OC)C(OC2OC(C)C(OC3CC(C)(OC(=O)CC)C(OC(=O)CC)C(C)O3)C(N(C)C)C2O)C(CC=O)CC1C` (centres unmarked) [Compound No. 7], for which the MIC in data set [2] (Staphylococcus aureus 209P, 24 hours, 37° C) was found to be 0.78 mg/L (≈ 0.842 µM); in data set [3] (Staphylococcus aureus Terajima, 24 hours, 37° C), 1.56 mg/L (≈ 1.68 µM); in data set [4] (Staphylococcus aureus Smith, 24 hours, 37° C) it was 0.78 mg/L (≈ 0.842 µM); in data set [5] (Staphylococcus albus 1200A, 24 hours, 37° C) it was 1.56 mg/L (≈ 1.68 µM); in [6] (ATCC8043, Streptococcus faecalis ATCC 8043, 24 hours, 37° C), 0.78 mg/L (≈ 0.842 µM); in [7] (Streptococcus hemolyticus Cook, 24 hours, 37° C), 0.19 mg/L (≈ 0.205 µM). The MIC was determined as 1.56 mg/L (≈ 1.68 µM) in data set [8] (D90, Streptococcus hemolyticus D-90, 24 hours, 37° C); 0.09 mg/L (≈ 0.0972 µM) in data set [9] (D58, Streptococcus pyogenes D-58, 24 hours, 37° C); 0.19 mg/L (≈ 0.205 µM) in data set [10] (Diplococcus pneumoniae Type I, 24 hours, 37° C); 0.09 mg/L (≈ 0.0972 µM) in data set [11] (Diplococcus pneumoniae Type III, 24 hours, 37° C); 0.78 mg/L (≈ 0.842 µM) in data set [12] (PCI219, Bacillus subtilis PCI 219, 24 hours, 37° C); 1.56 mg/L (≈ 1.68 µM) in data set [13] (ATCC6633, Bacillus subtilis ATCC 6633, 24 hours, 37° C). The MIC in data set [14] was found to be 0.78 mg/L (≈ 0.842 µM); in [15] (Corynebacterium diphtheriae Type gravis, 24 hours, 37° C) it was 0.19 mg/L (≈ 0.205 µM); in data set [16] (Corynebacterium diphtheriae Type intermedius, 24 hours, 37° C), 0.19 mg/L (≈ 0.205 µM); in the data set with Sarcina lutea (Sarcina lutea, 24 hours, 37° C) it was 0.09 mg/L (≈ 0.0972 µM). Moreover, the “Rate of surviving mice in each group of mice” value in [17] (100 mg/kg oral) is recorded as 5/10; in data set [17] (200 mg/kg oral), 10/10.

On to `CCC(=O)OC1CC(=O)OC(C)CC=CC=CC(O)C(C)CC(CC=O)C(OC2OC(C)C(OC3CC(C)(O)C(OC(=O)CC)C(C)O3)C(N(C)C)C2O)C1OC` (centres unmarked) [SF-837 substance, reference compound], for which the MIC turned out to be 0.78 mg/L (≈ 0.958 µM) in [2] (Staphylococcus aureus, 209P, 24 h); 1.56 mg/L (≈ 1.92 µM) in data set [3] (Staphylococcus aureus, 24 h); 0.19 mg/L (≈ 0.233 µM) in data set [4] (Staphylococcus aureus, 24 h); 0.78 mg/L (≈ 0.958 µM) in [5] (Staphylococcus, 1200A, 24 h); 1.56 mg/L (≈ 1.92 µM) in [6] (ATCC8043, 24 h); 0.09 mg/L (≈ 0.111 µM) in data set [7] (24 h). The MIC in data set [8] (D90, 24 h) stood at 1.56 mg/L (≈ 1.92 µM); in [9] (Streptococcus pyogenes, D58, 24 h), 0.09 mg/L (≈ 0.111 µM); in data set [10] (24 h), 0.04 mg/L (≈ 0.0491 µM); in data set [11] (24 h), 0.04 mg/L (≈ 0.0491 µM); in data set [12] (Bacillus subtilis, PCI219, 24 h), 0.78 mg/L (≈ 0.958 µM); in [13] (Bacillus subtilis, ATCC6633, 24 h) it was 1.56 mg/L (≈ 1.92 µM). Moreover, the MIC in data set [14] is 0.78 mg/L (≈ 0.958 µM); in [15] (setting [19]) it was 0.19 mg/L (≈ 0.233 µM); in data set [16] (setting [19]) it was 0.19 mg/L (≈ 0.233 µM); with Sarcina lutea (24 h) it was 0.09 mg/L (≈ 0.111 µM). In [18], this compound returned an LD50 of 3200 mg/kg. Also, the “Rate of surviving mice in each group of mice” value is listed as 0/10 in [17] (100 mg/kg oral) and 6/10 in data set [17] (200 mg/kg oral).
